# Where a name gives a salt, the structure may show the parent alone.
# Target: T1, RORc (Homo sapiens, UniProt P51449)
# T1 sequence (P51449 269-508 limits assumed): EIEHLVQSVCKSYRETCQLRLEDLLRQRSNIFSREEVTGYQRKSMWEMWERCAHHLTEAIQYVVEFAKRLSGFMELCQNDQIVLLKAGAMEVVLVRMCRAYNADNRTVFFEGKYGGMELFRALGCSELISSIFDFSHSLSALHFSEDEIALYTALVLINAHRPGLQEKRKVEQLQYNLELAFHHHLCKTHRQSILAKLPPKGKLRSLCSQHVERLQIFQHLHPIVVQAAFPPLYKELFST
# Assay: In vitro RORc ligand binding assay (25-[3H]hydroxycholesterol displacement)
# Details: IC50, IC50 values for RORc; unit inferred
row,IC50 [nM],SMILES
1,14.3,"C[C@H]1CC[C@H](c2ccccc2)S(=O)(=O)N1Cc1cc(F)c(C2(OCC(=O)O)CCOCC2)cc1F [Compound 145, 2-[4-[2,5-difluoro-4-[[(3S,6R)-3-methyl-1,1-dioxo-6-phenyl-thiazinan-2-yl]methyl]phenyl]tetrahydropyran-4-yl]oxyacetic acid]"
2,32.7,"CNC(=O)CCC1(c2cc(F)c(CN3[C@@H](C)CC[C@H](c4ccccc4)S3(=O)=O)cc2F)CC1 [Compound 146, 3-[1-[2,5-difluoro-4-[[(3S,6R)-3-methyl-1,1-dioxo-6-phenyl-thiazinan-2-yl]methyl]phenyl]cyclopropyl]-N-methyl-propanamide]"
3,32.5,"C[C@H]1CC[C@H](c2ccccc2)S(=O)(=O)N1Cc1cc(F)c(C2(CCC(=O)N(C)C)CC2)cc1F [Compound 147, 3-[1-[2,5-difluoro-4-[[(3S,6R)-3-methyl-1,1-dioxo-6-phenyl-thiazinan-2-yl]methyl]phenyl]cyclopropyl]-N,N-dimethyl-propanamide]"
4,14.5,"CC(=O)N1CCC(C#N)(c2cc(F)c(CN3[C@@H](C)CC[C@H](c4ccccc4)S3(=O)=O)cc2F)CC1 [Compound 148, 1-acetyl-4-[2,5-difluoro-4-[[(3S,6R)-3-methyl-1,1-dioxo-6-phenyl-thiazinan-2-yl]methyl]phenyl]piperidine-4-carbonitrile]"
5,11.4,"CC(=O)N1CCC(C(N)=O)(c2cc(F)c(CN3[C@@H](C)CC[C@H](c4ccccc4)S3(=O)=O)cc2F)CC1 [Compound 149, 1-acetyl-4-[2,5-difluoro-4-[[(3S,6R)-3-methyl-1,1-dioxo-6-phenyl-thiazinan-2-yl]methyl]phenyl]piperidine-4-carboxamide]"
6,6.1,"C[C@H]1CC[C@H](c2ccccc2)S(=O)(=O)N1Cc1cc(F)c(C2(OCC(N)=O)CCOCC2)cc1F [Compound 150, 2-[4-[2,5-difluoro-4-[[(3S,6R)-3-methyl-1,1-dioxo-6-phenyl-thiazinan-2-yl]methyl]phenyl]tetrahydropyran-4-yl]oxyacetamide]"
7,7.8,"C[C@H]1CC[C@H](c2ccccc2)S(=O)(=O)N1Cc1cc(F)c(C2(OCC(O)CO)CCOCC2)cc1F (stereo partly drawn) [Compound 151, 3-[4-[2,5-difluoro-4-[[(3S,6R)-3-methyl-1,1-dioxo-6-phenyl-thiazinan-2-yl]methyl]phenyl]tetrahydropyran-4-yl]oxypropane-1,2-diol]"
8,227,"C[C@H]1CC[C@H](c2ccccc2)S(=O)(=O)N1Cc1ccc(C2(NC(=O)OC(C)(C)C)CC2)cc1F [Compound 152, tert-butyl N-[1-[3-fluoro-4-[[(3S,6R)-3-methyl-1,1-dioxo-6-phenyl-thiazinan-2-yl]methyl]phenyl]cyclopropyl]carbamate]"
9,572,"C[C@H]1CC[C@H](c2ccccc2)S(=O)(=O)N1Cc1ccc(C2(N)CC2)cc1F [Compound 153, 1-[3-fluoro-4-[[(3S,6R)-3-methyl-1,1-dioxo-6-phenyl-thiazinan-2-yl]methyl]phenyl]cyclopropanamine; hydrochloride]"
10,5.7,"CNC(=O)COC1(c2cc(F)c(CN3[C@@H](C)CC[C@H](c4ccccc4)S3(=O)=O)cc2F)CCOCC1 [Compound 154, 2-[4-[2,5-difluoro-4-[[(3S,6R)-3-methyl-1,1-dioxo-6-phenyl-thiazinan-2-yl]methyl]phenyl]tetrahydropyran-4-yl]oxy-N-methyl-acetamide]"
11,15.2,"C[C@H]1CC[C@H](c2ccccc2)S(=O)(=O)N1Cc1cc(F)c(C2(OCC(=O)NCCO)CCOCC2)cc1F [Compound 156, 2-[4-[2,5-difluoro-4-[[(3S,6R)-3-methyl-1,1-dioxo-6-phenyl-thiazinan-2-yl]methyl]phenyl]tetrahydropyran-4-yl]oxy-N-(2-hydroxyethyl)acetamide]"
12,47.2,"C[C@H]1CC[C@H](c2ccccc2)S(=O)(=O)N1Cc1cc(F)c(C2(OCC(=O)N(C)CCO)CCOCC2)cc1F [Compound 157, 2-[4-[2,5-difluoro-4-[[(3S,6R)-3-methyl-1,1-dioxo-6-phenyl-thiazinan-2-yl]methyl]phenyl]tetrahydropyran-4-yl]oxy-N-(2-hydroxyethyl)-N-methyl-acetamide]"
13,60.3,C[C@H]1CC[C@H](c2ccccc2)S(=O)(=O)N1Cc1ccc(C2(CCO)COC2)cc1F [Compound 158]
14,77.1,C[C@H]1CC[C@H](c2ccccc2)S(=O)(=O)N1Cc1ccc(C2(CCC#N)COC2)cc1F [Compound 159]
15,14.5,"COC1(OC)CC(C#N)(c2ccc(CN3[C@@H](C)CC[C@H](c4ccccc4)S3(=O)=O)c(F)c2)C1 [Compound 160, 1-[3-fluoro-4-[[(3S,6R)-3-methyl-1,1-dioxo-6-phenyl-thiazinan-2-yl]methyl]phenyl]-3,3-dimethoxy-cyclobutanecarbonitrile]"
16,29.5,"CCOC(=O)CNC1(c2ccc(CN3[C@@H](C)CC[C@H](c4ccccc4)S3(=O)=O)c(F)c2)CCOCC1 [Compound 161, ethyl 2-[[4-[3-fluoro-4-[[(3S,6R)-3-methyl-1,1-dioxo-6-phenyl-thiazinan-2-yl]methyl]phenyl]tetrahydropyran-4-yl]amino]acetate]"
17,63.9,"C[C@H]1CC[C@H](c2ccccc2)S(=O)(=O)N1Cc1ccc(C2(C#N)CC(=O)C2)cc1F [Compound 162, 1-[3-fluoro-4-[[(3S,6R)-3-methyl-1,1-dioxo-6-phenyl-thiazinan-2-yl]methyl]phenyl]-3-oxo-cyclobutanecarbonitrile]"
18,3.2,"C[C@H]1CC[C@H](c2ccccc2)S(=O)(=O)N1Cc1ccc(C2(NCC(N)=O)CCOCC2)cc1F [Compound 163, 2-[[4-[3-fluoro-4-[[(3S,6R)-3-methyl-1,1-dioxo-6-phenyl-thiazinan-2-yl]methyl]phenyl]tetrahydropyran-4-yl]amino]acetamide]"
19,112,"C[C@H]1CC[C@H](c2ccccc2)S(=O)(=O)N1Cc1ccc(C2(NCC(=O)O)CCOCC2)cc1F [Compound 164, 2-[[4-[3-fluoro-4-[[(3S,6R)-3-methyl-1,1-dioxo-6-phenyl-thiazinan-2-yl]methyl]phenyl]tetrahydropyran-4-yl]amino]acetic acid]"
20,52.2,"C[C@H]1CC[C@H](c2ccccc2)S(=O)(=O)N1Cc1ccc(C2(C#N)CC(F)(F)C2)cc1F [Compound 165, 3,3-difluoro-1-[3-fluoro-4-[[(3S,6R)-3-methyl-1,1-dioxo-6-phenyl-thiazinan-2-yl]methyl]phenyl]cyclobutanecarbonitrile]"
21,27.6,"C[C@H]1CC[C@H](c2ccccc2)S(=O)(=O)N1Cc1ccc(C2(NCC(=O)N(C)C)CCOCC2)cc1F [Compound 166, 2-[[4-[3-fluoro-4-[[(3S,6R)-3-methyl-1,1-dioxo-6-phenyl-thiazinan-2-yl]methyl]phenyl]tetrahydropyran-4-yl]amino]-N,N-dimethyl-acetamide]"
22,11.1,"C[C@H]1CC[C@H](c2ccccc2)S(=O)(=O)N1Cc1ccc(C2(C(N)=O)CC(F)(F)C2)cc1F [Compound 167, 3,3-difluoro-1-[3-fluoro-4-[[(3S,6R)-3-methyl-1,1-dioxo-6-phenyl-thiazinan-2-yl]methyl]phenyl]cyclobutanecarboxamide]"
23,120,"CCOC(=O)[C@@H](C)NC1(c2ccc(CN3[C@@H](C)CC[C@H](c4ccccc4)S3(=O)=O)c(F)c2)CCOCC1 [Compound 172, ethyl (2R)-2-[[4-[3-fluoro-4-[[(3S,6R)-3-methyl-1,1-dioxo-6-phenyl-thiazinan-2-yl]methyl]phenyl]tetrahydropyran-4-yl]amino]propanoate]"
24,33.1,"CNC(=O)CNC1(c2ccc(CN3[C@@H](C)CC[C@H](c4ccccc4)S3(=O)=O)c(F)c2)CCOCC1 [Compound 173, 2-[[4-[3-fluoro-4-[[(3S,6R)-3-methyl-1,1-dioxo-6-phenyl-thiazinan-2-yl]methyl]phenyl]tetrahydropyran-4-yl]amino]-N-methyl-acetamide]"
25,37.9,"CC(OC1(c2ccc(CN3[C@@H](C)CC[C@H](c4ccccc4)S3(=O)=O)c(F)c2)CCOCC1)C(N)=O (stereo partly drawn) [Compound 174, 2-[4-[3-fluoro-4-[[(3S,6R)-3-methyl-1,1-dioxo-6-phenyl-thiazinan-2-yl]methyl]phenyl]tetrahydropyran-4-yl]oxypropanamide]"
26,4.9,"CC(=O)N1CC(OCC(N)=O)(c2cc(F)c(CN3[C@@H](C)CC[C@H](c4ccccc4)S3(=O)=O)cc2F)C1 [Compound 175, 2-[1-acetyl-3-[2,5-difluoro-4-[[(3S,6R)-3-methyl-1,1-dioxo-6-phenyl-thiazinan-2-yl]methyl]phenyl]azetidin-3-yl]oxyacetamide]"
27,2.5,"C[C@H]1CC[C@H](c2ccccc2)S(=O)(=O)N1Cc1cc(F)c(C2(OCC(=O)NCCO)COC2)cc1F [Compound 176, 2-[3-[2,5-difluoro-4-[[(3S,6R)-3-methyl-1,1-dioxo-6-phenyl-thiazinan-2-yl]methyl]phenyl]oxetan-3-yl]oxy-N-(2-hydroxyethyl)acetamide]"
28,4.35,"CNC(=O)COC1(c2cc(F)c(CN3[C@@H](C)CC[C@H](c4ccccc4)S3(=O)=O)cc2F)COC1 [Compound 177, 2-[3-[2,5-difluoro-4-[[(3S,6R)-3-methyl-1,1-dioxo-6-phenyl-thiazinan-2-yl]methyl]phenyl]oxetan-3-yl]oxy-N-methyl-acetamide]"
29,44.1,"C[C@H]1CC[C@H](c2ccccc2)S(=O)(=O)N1Cc1ccc([C@]2(C#N)C[C@H](O)C2)cc1F [Compound 178, 1-[3-fluoro-4-[[(3S,6R)-3-methyl-1,1-dioxo-6-phenyl-thiazinan-2-yl]methyl]phenyl]-3-hydroxy-cyclobutanecarbonitrile]"
30,159,"C[C@H]1CC[C@H](c2ccccc2)S(=O)(=O)N1Cc1ccc([C@]2(C#N)C[C@@H](O)C2)cc1F [Compound 179, 1-[3-fluoro-4-[[(3S,6R)-3-methyl-1,1 dioxo-6-phenyl-thiazinan-2-yl]methyl]phenyl]-3-hydroxy-cyclobutanecarbonitrile]"
